1 compound from patent publication US12551479B2, “Acyl-protein thioesterase inhibitor for the treatment and/or prevention of Huntington's disease” (UNIVERSITÉ GRENOBLE ALPES, priority 2019, dated 2026) can be followed below.

Structures are written as SMILES.

The test system of one data set is ERK phosphorylation. As to the kind of experiment: Postsynaptic signaling: phosphoERK immunopositive striatal neurons after glycine/strychnine stimulation. The data set is classed as cell-based, mouse. The settings on record: Hdh^CAG/+ neurons, 1 μM daily; glycine/strychnine 15 minutes.
Data set [1] has as its system mouse cortical neuronal cells. Kind of data set: MTT toxicity assay. The data set is classed as cell-based. As to the method:
Toxicity was assessed using the tetrazolium salt MTT assay. The cortical culture was treated every day as previously described. After treatment, a solution of MTT (Life M6494) was added to the culture medium at 1.2 mM and incubated for 3 hours. The reaction was terminated by adding the solvent solution (4 mM HCl, 0.1% NP40 in isopropanol). The absorbance value was measured at 595 and 690 nm.
(In general: Tetrazolium assays rely on reduction of a dye to a coloured formazan, in cell work by metabolically active cells.)

Data set [2] concerns brain palmitoylated proteins. As to the kind of experiment: ABE (Acyl-Biotin-Exchange) assay on brain lysate. The data set is classed as in vivo, mice. As to the method:
In FIG. 4D, the graphic representation of the experiment set up to test the efficacy of the molecule to increase the level of palmitoylation in the brain 30 minutes after injection can be visualized. […] Brains were mechanically lysed in ice-cold buffer (1% IGEPAL CA-630; 50 mM Tris-HCl pH 7.5, 150 mM NaCl, 10% glycerol) containing 1:100 protease inhibitor cocktail (Sigma Aldrich P8340), 1 mM PMSF, 1:200 phosphatase inhibitor (Sigma Aldrich P5726), and 50 mM NEM (Sigma Aldrich E3876) to block free cystein. Brain lysates were rotated at 4° C. for 30 minutes before insoluble material was removed by centrifugation at 15.000 rpm for 10 minutes. Lysates were precleared by incubation with Dynabeads M-280 Streptavidin (Invitrogen 112.05D) for 30 minutes at 4° C. on the wheel. Proteins from precleared samples were then precipitated using chloroform-methanol assay. Each pellet was divided and resuspended in +HAM (2:3 of the pellet) (lysis buffer containing 1 mM HAM (Sigma 46780-4)) or −HAM (1:3 of the pellet) during 1 hour at room temperature on the wheel. Proteins were precipitated with chloroform-methanol method and the pellets were resuspended in Biotin-BMCC buffer (lysis buffer with 5 μM EZ-Link™ Biotin-BMCC (Thermo Fisher 21900)) for 1 hour at room temperature on the wheel. […]

For data set [3], the system named is Hdh^CAG140/+ mice. As to the kind of experiment: Open Field test. The data set is classed as in vivo, mouse. Particulars: 0.3 mg/kg/day subcutaneous infusion. Here is the method: (§1) Mice littermates were grouped into mixed treatment groups. Males and females were 6 months of age at the beginning of the treatment. For each specific test, all experimental groups were tested on the same day, during the light phase and between Days 16 and 28 of treatment. Prior to testing, mice were acclimatized to the test room for a period of 30 minutes. Treatments were randomly assigned and behavioral tests were performed 12 days before the end of the delivery of the treatment. […] Mice were excluded from analysis if their performance was calculated as a significant outlier by the Grubb test. One mouse was excluded based on these criteria. Mouse weights were measured prior to the start of treatment and until the end of testing.
Spontaneous locomotion was measured as the total distance traveled and general anxiety as the number of entries into the internal area. The Open Field test was conducted in a opaque Plexiglas square chamber (50×50 cm) and the internal chamber was defined with a quadrangular shape of 12.50×12.50 cm. The mice were filmed for 60 minutes. The distance traveled and the number of entries into the internal chamber per 5-minute interval were measured using ViewPoint tracking software.

Data set [4] relates to Hdh^CAG140/+ mice. Kind of data set: Novelty-Suppressed Feeding test. In kind it is in vivo, mouse. Particulars: Hdh^CAG/+ mice, 0.3 mg/kg/day subcutaneous infusion. As to the method:
as §1
The test was performed as in Pla et al., 2013. Animals were food-deprived during 24 hours to increase motivation to consume food. On the day of testing, mice were placed within the testing apparatus, which consisted of a plastic box (50 cm×30 cm×15 cm), the floor of which covered with wooden bedding. Mice were videorecorded and allowed to freely explore the area until they eat the food pellet or for a maximum of 10 minutes. The mice were considered to eat the pellet when they bite the pellet while sitting comfortably.

The subject of data set [5] is Hdh^CAG140/+ mice. Kind of data set: Horizontal Ladder test. In kind it is in vivo, mouse. Particulars: Hdh^CAG/+ mice, 0.3 mg/kg/day subcutaneous infusion; values similar to wild-type. As to the method:
as §1
A horizontal ladder is used to assess forelimb and hindlimb placement and coordination. The horizontal ladder is composed of two clear Plexiglas walls (69.50×15 cm) containing metal rungs (0.2 cm diameter) irregularly spaced (between 0.5 and 2 cm apart). Mice were habituated to walk on a horizontal ladder during two consecutive days (3 trials per day). Then the mice were tested (3 trials) with a different pattern than the two days of habituation. Test trials were videorecorded, and the motor performance as well as the latency to complete the task were quantified. Data are expressed as the average of the 3 trials.

The subject of the next data set is Hdh^CAG/+ mice. Kind of data set: Post-mortem synapse density (adjacent PSD95 and Vglut-1 spots) after 28 days of treatment. The data set is classed as in vivo, mouse. The source says: We note that there is a significant reduction in this number of adjacent spots in untreated Hdh^CAG/+ mice.

Protocol for ERK phosphorylation: For striatal StHdh cells, acute treatment was performed at 10 μM for 1 hour before and during the acquisition time. For neurons within the microchambers, treatments were started at DIV2 until DIV12 every day at 1 μM in each compartment of the microfluidic device.
They used ERK phosphorylation as the readout of the postsynaptic signaling. […] The inventors stimulated cortical neurons for 15 minutes with glycine/strychnine and quantified the percentage of striatal neurons immunopositive for phosphoERK (FIG. 3J).

Turning to `O=C(CN1CCN(C(=O)c2ccco2)CC1)Nc1cc(C(F)(F)F)ccc1Cl` [ML-348], the “percentage of immunopositive phosphoERK cells in the postsynaptic space” value in the data set on ERK phosphorylation is given as “restore postsynaptic signaling to values encountered in wild-type neurons”. Moreover, the “cell viability (MTT)” value in data set [1] (100 nM, 1 μM or 10 μM) is on record as “no effect”. In addition, the “toxicity (MTT)” value in data set [1] (1 μM, for 12 days) is recorded as “no toxicity”; in data set [1] (100 μM, over 48 hours), “toxic”; in data set [1] (wild-type cortical cultures, 1 μM for 10 days), “no toxicity”. Moreover, the “palmitoylation in brain (ABE, +HAM vs −HAM)” value in data set [2] (HdH^CAG/+ mice, 28 days of treatment, 0.3 mg/kg/day subcutaneous osmotic pump) is on record as “increase palmitoylation”. Further, the “level of palmitoylation in brain lysates” value in data set [2] (mice injected with 0.3 mg/kg, 30 minutes after injection) is on record as “increased”. The “total distance traveled over 60 minutes (spontaneous locomotion)” value with Hdh^CAG140/+ mice [3] was “no effect”. Moreover, the “number of entries into the central area over 60 minutes” value in the data set on Hdh^CAG140/+ mice [3] (wild-type and Hdh^CAG/+ mice) is on record as “no significant effect”. Besides, the “latency to feeding in a new environment” value in the data set with Hdh^CAG140/+ mice [4] is given as “restores the behavior of Hdh^CAG/+ mice to that of wild-type mice”. The average error score entry in the data set on Hdh^CAG140/+ mice [5] is on record as “significant improvement”. In the data set with Hdh^CAG140/+ mice [5], the “average time to cross the horizontal ladder” value was “significant improvement”. Further, the “synaptic density, number of PSD95 and Vglut-1 adjacent dots per 100 μm^2” value with Hdh^CAG/+ mice is given as “restores synaptic density to a level approximately equal to that of untreated wild-type mice”.
